Reference: ChEMBL document CHEMBL1141203, “Transforming bivalent ligands into retractable enzyme inhibitors through polypeptide-protein interactions” (Bioorg Med Chem Lett, 2005)
pKi: −log10 of the molar value.

Biological target: Prothrombin (Homo sapiens, UniProt P00734)
Assay: Inhibitory activity against human thrombin by amidolytic assay using chromogenic S-2238 substrate
Assay type: functional

| Structure (SMILES) | pKi |
| --- | --- |
| CC[C@H](C)C[C@H](NC(=O)[C@H](CC(C)C)NC(=O)[C@H](CCCCN)NC(=O)[C@H](CCC(N)=O)NC(=O)[C@H](CCC(=O)O)NC(=O)CNC(=O)[C@H]1CCCCN1C(=O)[C@H](CCCN=C(N)N)NS(=O)(=O)c1ccc(C(C)(C)C)cc1)C(=O)N[C@@H](CO)C(=O)N[C@@H](CCC(=O)O)C(=O)N[C@@H](CCC(=O)O)C(=O)N[C@@H](CC(=O)O)C(=O)N[C@@H](CC(C)C)C(=O)NCC(=O)N[C@@H](CC(=O)O)C(=O)N[C@@H](Cc1ccccc1)C(=O)N[C@@H](CCC(=O)O)C(=O)N[C@@H](CCC(=O)O)C(=O)N[C@H](C(=O)N1CCC[C@H]1C(=O)N[C@@H](CCC(=O)O)C(=O)N[C@@H](CCC(=O)O)C(=O)N[C@@H](Cc1ccc(O)cc1)C(=O)N[C@@H](CC(C)C)C(=O)N[C@@H](CCC(N)=O)C(=O)O)[C@@H](C)CC | 7.18 |
| CC[C@H](C)[C@H](NC(=O)[C@H](CCC(=O)O)NC(=O)[C@H](CCC(=O)O)NC(=O)[C@H](Cc1ccccc1)NC(=O)[C@H](CC(=O)O)NC(=O)CNC(=O)[C@H](CO)NC(=O)CNC(=O)[C@H](CO)NC(=O)CNC(=O)[C@H]1CCCCN1C(=O)[C@H](CCCN=C(N)N)NS(=O)(=O)c1ccc(C(C)(C)C)cc1)C(=O)N1CCC[C@H]1C(=O)N[C@@H](CCC(=O)O)C(=O)N[C@@H](CCC(=O)O)C(=O)N[C@@H](Cc1ccc(O)cc1)C(=O)N[C@@H](CC(C)C)C(=O)N[C@@H](CCC(N)=O)C(=O)O | 7.44 |
